Data on 14 compounds can be found in patent US12583848B2, “Isoxazole-3-carboxamide derivatives and their use for treatment of diseases caused by virus infection” (Collaborations Pharmaceuticals, Inc., priority 2019, dated 2026).

One data set concerns poliomyelitis virus. To be noted: cited from earlier work.
The subject of a further data set is poliovirus. To be noted: mouse, in vivo; cited from earlier work.
In data set [1] the test system is CVB3 97927-I1207M (pleconaril-resistant variant). It counts as cell-based, coxsackievirus B3.
The subject of another data set is rhinovirus A2 (RV-A2). As to the kind of experiment: organism not typed. In kind it is cell-based. Conditions: HeLa, 72 h, read-out: IC50 against Rhinoviruses (RV) RV-A2.
In a further data set the test system is rhinovirus B14 (RV-B14). As to the kind of experiment: organism not typed. It counts as cell-based. Conditions: HeLa, 72 h, read-out: IC50 against Rhinoviruses (RV) RV-B14.
Another data set concerns HeLa cells. To be noted: human.
Data set [2] concerns CVB3 97927-I1207K (pleconaril-resistant variant). In kind it is cell-based, coxsackievirus B3.
For data set [3], the system named is CVB3 97927-I1207T (pleconaril-resistant variant). It counts as cell-based, coxsackievirus B3.
In another data set the test system is rhinovirus B5 (RV-B5). As to the kind of experiment: organism not typed. To be noted: HeLa cells, CPE inhibition, 72 hours; n.a. = not active; read-out: IC50 against Rhinoviruses (RV) RV-B5. It counts as cell-based.
Data set [4] deals with clinical isolates of enterovirus serotypes. Conditions: most of 215 clinical isolates of enterovirus serotypes; cited from earlier work.
Data set [5] relates to coxsackievirus B3 I1207K and I1207R. Conditions: in vitro; cited from earlier work.
Another data set in a line: in vitro. To be noted: human, HeLa cells.
The next data set concerns the target PXR (Homo sapiens, UniProt O75469). Put plainly: biochemical.
In data set [6] the test system is Enterovirus D68 (EV-D68 MP30 PP). It counts as in vivo, AG129 mice. Conditions: guanidine 100 mg/kg/d IP, days 1 and 3 post-infection.

Chain of PXR (O75469 111-434 limits assumed): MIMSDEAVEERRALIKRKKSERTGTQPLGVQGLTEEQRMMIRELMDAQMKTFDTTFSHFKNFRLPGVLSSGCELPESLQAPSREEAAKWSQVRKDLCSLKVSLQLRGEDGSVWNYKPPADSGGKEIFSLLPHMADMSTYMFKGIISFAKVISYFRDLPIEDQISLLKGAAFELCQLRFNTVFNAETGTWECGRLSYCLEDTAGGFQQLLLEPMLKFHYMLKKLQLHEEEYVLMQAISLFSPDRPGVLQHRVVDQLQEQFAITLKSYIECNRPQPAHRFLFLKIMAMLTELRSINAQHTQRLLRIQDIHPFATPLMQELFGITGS

Regarding `CCC(=O)C(CCCCCCOc1ccc(OC)cc1Cl)C(=O)CC` [Arildone], the “replication of poliomyelitis virus in vitro” value in the data set with poliomyelitis virus is “specifically inhibits replication of poliomyelitis virus in vitro”. In the data set with poliovirus, the “poliovirus-induced paralysis and death” value was “prevents poliovirus-induced paralysis and death in mice”.
Take `Cc1cc(-c2noc(C(F)(F)F)n2)cc(C)c1OCCCc1cc(C(=O)NCc2ccccc2)no1` [Compound 1, N-benzyl-5-(3-{2,6-dimethyl-4-[5-(trifluoromethyl)-1,2,4-oxadiazol-3-yl]phenoxy}propyl)isoxazole-3-carboxamide]: the results for the concentration for half-maximal inhibition (IC50) (in [1]; with rhinovirus A2 (RV-A2); in the data set with rhinovirus B14 (RV-B14)) were 13.1 µM, 0.23 µM and 0.25 µM, respectively. The compound also showed a CC50 in the data set with HeLa cells greater than 100 µM.
Consider `CNC(=O)c1cc(CCCOc2c(C)cc(-c3noc(C(F)(F)F)n3)cc2C)on1` [Compound 2, 5-(3-{2,6-dimethyl-4-[5-(trifluoromethyl)-1,2,4-oxadiazol-3-yl]phenoxy}propyl)-N-methylisoxazole-3-carboxamide], for which the IC50 in [1] is 0.37 µM; with rhinovirus A2 (RV-A2), 0.21 µM; in the data set with rhinovirus B14 (RV-B14) it was 0.02 µM. Moreover, the half-maximal cytotoxic concentration (CC50) in the data set with HeLa cells is greater than 100 µM. Besides, the Mutagenicity result with Escherichia coli PQ37 is given as “NO”.
As to `Cc1cc(-c2noc(C(F)(F)F)n2)cc(C)c1OCCCc1cc(C(N)=O)no1` [Compound 3, 5-(3-{2,6-dimethyl-4-[5-(trifluoromethyl)-1,2,4-oxadiazol-3-yl]phenoxy}propyl)isoxazole-3-carboxamide], the IC50 in [1] was 1.69 µM; with rhinovirus A2 (RV-A2), 0.5 µM; in the data set on rhinovirus B14 (RV-B14), 0.22 µM. In the data set with HeLa cells, the half-maximal cytotoxic concentration (CC50) was greater than 100 µM.
Consider `Cc1cc(-c2noc(C(F)(F)F)n2)cc(C)c1OCCCc1cc(C(=O)N(C)C)no1` [Compound 4, 5-(3-{2,6-dimethyl-4-[5-(trifluoromethyl)-1,2,4-oxadiazol-3-yl]phenoxy}propyl)-N,N-dimethylisoxazole-3-carboxamide], for which the IC50 is 8.52 µM in data set [2]; less than 0.03 µM in data set [1]; 1.01 µM in data set [3]; 0.12 µM in the data set on rhinovirus A2 (RV-A2); 0.12 µM with rhinovirus B14 (RV-B14). The CC50 in the data set on HeLa cells stood at 13.2 µM. In the data set on Escherichia coli PQ37, the Mutagenicity result is “NO”.
As to `COc1cc(-c2noc(C(F)(F)F)n2)ccc1OCCCc1cc(C(=O)N(C)C)no1` [Compound 6, 5-(3-{2-methoxy-4-[5-(trifluoromethyl)-1,2,4-oxadiazol-3-yl]phenoxy}propyl)-N,N-dimethylisoxazole-3-carboxamide], the IC50 in data set [2] stood at 51.7 µM; in data set [1], 0.6 µM; in data set [3] it was 1.66 µM; in the data set with rhinovirus A2 (RV-A2), 1.97 µM; in the data set on rhinovirus B5 (RV-B5), 3.28 µM; in the data set with rhinovirus B14 (RV-B14) it was 0.04 µM. The compound further yielded a CC50 in the data set with HeLa cells of 68 µM.
Turning to `CN(C)C(=O)c1cc(CCCOc2ccc(-c3noc(C(F)(F)F)n3)cc2[N+](=O)[O-])on1` [Compound 7, N,N-dimethyl-5-(3-{2-nitro-4-[5-(trifluoromethyl)-1,2,4-oxadiazol-3-yl]phenoxy}propyl)isoxazole-3-carboxamide], the half-inhibitory concentration (IC50) in data set [2] is 6.46 µM; in data set [1], 0.001 µM; in data set [3], 0.03 µM; with rhinovirus A2 (RV-A2), 0.67 µM; in the data set with rhinovirus B5 (RV-B5), 7.63 µM; in the data set with rhinovirus B14 (RV-B14), 0.28 µM. This compound also yielded a cytotoxic concentration (CC50) with HeLa cells of 22.5 µM. Moreover, in the data set with Escherichia coli PQ37, the Mutagenicity result is given as “NO”.
Regarding `CN(C)C(=O)c1cc(CCCOc2ccc(-c3noc(C(F)(F)F)n3)cc2F)on1` [Compound 9, 5-(3-{2-fluoro-4-[5-(trifluoromethyl)-1,2,4-oxadiazol-3-yl]phenoxy}propyl)-N,N-dimethylisoxazole-3-carboxamide], the IC50 was 0.05 µM in data set [1]; 1.43 µM in data set [3]; 3.77 µM with rhinovirus A2 (RV-A2); 4.04 µM in the data set on rhinovirus B5 (RV-B5); 0.05 µM in the data set with rhinovirus B14 (RV-B14). This compound also gave a CC50 in the data set on HeLa cells of 20.2 µM.
Consider `COc1cc(-c2noc(C(F)(F)F)n2)cc([N+](=O)[O-])c1OCCCc1cc(C(=O)N(C)C)no1` [Compound 10, 5-(3-{2-methoxy-6-nitro-4-[5-(trifluoromethyl)-1,2,4-oxadiazol-3-yl]phenoxy}propyl)-N,N-dimethylisoxazole-3-carboxamide], for which the IC50 in data set [1] came to 0.88 µM; in data set [3], 0.84 µM; in the data set with rhinovirus A2 (RV-A2), 0.32 µM; in the data set with rhinovirus B14 (RV-B14), 0.2 µM. This compound also returned a CC50 in the data set with HeLa cells of 25.6 µM.
Consider `CN(C)C(=O)c1cc(CCCOc2ccc(-c3noc(C(F)(F)F)n3)cc2)on1` [Compound 11, N,N-dimethyl-5-(3-{4-[5-(trifluoromethyl)-1,2,4-oxadiazol-3-yl]phenoxy}propyl)isoxazole-3-carboxamide], for which the IC50 in data set [2] came to 27.5 µM; in data set [1], 0.02 µM; in data set [3], 8.11 µM; in the data set on rhinovirus A2 (RV-A2), 4.61 µM; in the data set with rhinovirus B5 (RV-B5), 1.74 µM; in the data set with rhinovirus B14 (RV-B14), 0.04 µM. The compound further returned a cytotoxic concentration (CC50) with HeLa cells of 28 µM.
In the case of `CN(C)C(=O)c1cc(CCCOc2ccc(-c3noc(C(F)(F)F)n3)cc2C(F)(F)F)on1` [Compound 12, N,N-dimethyl-5-(3-{2-(trifluoromethyl)-4-[5-(trifluoromethyl)-1,2,4-oxadiazol-3-yl]phenoxy}propyl)isoxazole-3-carboxamide], the half-inhibitory concentration (IC50) in data set [2] was determined as 7.18 µM; in data set [1], 0.16 µM; in data set [3], 0.53 µM; with rhinovirus A2 (RV-A2), 0.32 µM; in the data set on rhinovirus B14 (RV-B14), 6.76 µM. In the data set with HeLa cells, this compound registered a half-maximal cytotoxic concentration (CC50) of 19.2 µM. In addition, the Mutagenicity entry in the data set with Escherichia coli PQ37 is “NO”.
`CNC(=O)c1cc(CCCOc2ccc(-c3noc(C(F)(F)F)n3)cc2C(F)(F)F)on1` [Compound 13, N-methyl-5-(3-{2-(trifluoromethyl)-4-[5-(trifluoromethyl)-1,2,4-oxadiazol-3-yl]phenoxy}propyl)isoxazole-3-carboxamide]: the IC50 in data set [1] was 0.06 µM; in data set [3], 1.04 µM; in the data set with rhinovirus A2 (RV-A2) it was 0.96 µM. Moreover, the CC50 with HeLa cells was greater than 100 µM.
`Cc1cc(CCCOc2c(C)cc(-c3noc(C(F)(F)F)n3)cc2C)on1` [Pleconaril, reference compound]: the IC50 was 4.5 µM in data set [1]; 9.41 µM in [3]; 0.06 µM in the data set with rhinovirus B14 (RV-B14); no more than 0.03 µM in data set [4]; greater than 100 µM on PXR. In [5], the “antiviral activity against coxsackievirus B3 with I1207K or I1207R in VP1” value is given as “completely abolish the antiviral activity”. For the same compound, in “in vitro”, the CC50 was found to be 45.2 µM.
As for “Guanidine HCl [Gua- HCl, reference compound]”, the IC50 in data set [2] is 705 µM; in data set [1], 725 µM; in data set [3], 807 µM. In [6], the “lung virus titers compared to placebo” value is on record as “reduction in virus titers”.

For orientation: IC50 means the concentration that gives 50% inhibition. A word on the CC50: it is the concentration that lowers cell viability or growth by half. Read a low CC50 as harm at low concentration.
